Test results: article PMC4850295, “Using a Genetically Encoded Sensor to Identify Inhibitors of Toxoplasma gondii Ca^2+ Signaling” (The Journal of Biological Chemistry, 2016)

Tested on: T1, GCaMP5-expressing T. gondii
T1 construct: whole extracellular parasites expressing GCaMP5 Ca2+ sensor
Design: species or system GCaMP5-expressing Toxoplasma gondii, extracellular; GCaMP5 fluorescence (cytosolic Ca2+) after 100 uM zaprinast in compound-pretreated extracellular parasites, background-subtracted, relative to zaprinast alone
Conditions: 100 uM zaprinast stimulation; 10 min pretreatment; mean of two replicates; 0.23 h
In short: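 Read-out is GCaMP5 calcium fluorescence (ex 485/em 525 nm) taken 4 min after 100 μM zaprinast at 37 °C, following 10 min compound pretreatment at 10 μM in duplicate biological replicates. Values are basal-subtracted fold change versus zaprinast-only controls; parasites held extracellular in Ringer's solution.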

Row | SMILES | fold change in fluorescence relative to zaprinast alone
1 | Cc1ccc2c(c1)/C(=N/Nc1ccc(S(N)(=O)=O)cc1)C(=O)N2 [GW275944X] | 1.616
2 | NS(=O)(=O)c1ccc(N/N=C2\C(=O)Nc3ccc(-c4cnco4)cc32)cc1 [GW276655X] | 1.083
3 | CS(=O)(=O)Nc1ccc(N/C=C2\C(=O)Nc3ccccc32)cc1 [GW278681X] | 1.254
4 | Cc1cc(Cl)cc2c1NC(=O)C2=NNc1ccc(S(N)(=O)=O)cc1 [GW279320X] | 1.035
5 | NS(=O)(=O)c1ccc(N/N=C2\C(=O)Nc3ccc(Cl)cc32)cc1 [GW280670X] | 0.9881
6 | Cn1cncc1-c1cc2c(Nc3ccc(OCc4ccccc4)cc3)ncnc2cn1 [GW281179X] | 1.036
7 | COc1cc2ncnc(Nc3ccc4c(cnn4Cc4ccccc4)c3)c2cc1OC [GW282449A] | 1.119
8 | COc1cc2ncnc(Nc3ccc4nc(-c5ccccc5)[nH]c4c3)c2cc1OC [GW282450A] | 0.9024
9 | Cc1cccc2c1NC(=O)/C2=N\Nc1ccc(S(N)(=O)=O)cc1 [GW282536X] | 1.189
10 | c1ccc(COc2ccc(Nc3ncnc4ccc(-c5ccco5)cc34)cc2)cc1 [GW284372X] | 0.7189
11 | O=C1Nc2ccccc2/C1=C/Nc1ccc2[nH]c(=O)[nH]c2c1 [GW284408X] | 0.9722
12 | NS(=O)(=O)c1ccc(N/N=C2\C(=O)Nc3ccc(C(=O)NCCCn4ccnc4)cc32)cc1 [GW290597X] | 1.214
13 | COc1ccc2[nH]c3c4[nH]c5ccc(OC)cc5c4c4c(c3c2c1)C(=O)NC4=O [GW296115X] | 0.5167
14 | NS(=O)(=O)c1ccc(N/C=C2\C(=O)Nc3ccc4ncsc4c32)cc1 [GW297361X] | 1.167
15 | NS(=O)(=O)c1ccc(N/N=C2\C(=O)Nc3ccc(C(=O)NCCc4c[nH]cn4)cc32)cc1 [GW300660X] | 1.243
16 | O=C1Nc2ccccc2/C1=C/Nc1ccc(-n2cncn2)cc1 [GW301789X] | 1.111
17 | CN(C)c1cc2c(Nc3ccc4nc(Cc5ccccc5)[nH]c4c3)ncnc2cn1 [GW301888X] | 1.125
18 | NS(=O)(=O)c1ccc(N/N=C2\C(=O)Nc3ccc4ncccc4c32)cc1 [GW305178X] | 0.9853
19 | Cn1cncc1-c1ccc2ncnc(Nc3ccc(OCc4ccccc4)cc3)c2c1 [GW320571X] | 0.8423
20 | C/C(Nc1ccc(S(N)(=O)=O)cc1)=C1/C(=O)Nc2ccccc21 [GW335962X] | 1.108
21 | CCn1cnc2c(N)ncnc21 [GW345098X] | 1.056
22 | NS(=O)(=O)c1ccc(N/N=C2\C(=O)Nc3cccc(CCc4ccncc4)c32)cc1 [GW352430A] | 1.031
23 | O=C1Nc2ccc(C(=O)c3ccco3)cc2C1=Cc1cc(Cl)c(O)c(Cl)c1 [GW406108X] | 1.311
24 | COC(=O)c1cncc(/C=C/c2c(C)cc(O)cc2C)c1 [GW406731X] | 0.8759
25 | c1ccc(Oc2ccc(Nc3ccnc4ccc(-c5ccccn5)cc34)cc2)cc1 [GW407034X] | 0.6551

Row | SMILES | fold change in fluorescence relative to zaprinast alone
26 | COc1cc2ncnc(Nc3ccc(C)c(O)c3)c2cc1OC [GW410563A] | 1.297
27 | CN(C)c1ccc2c(c1)/C(=C/Nc1ccc(S(N)(=O)=O)cc1)C(=O)N2 [GW416469X] | 1.109
28 | CC(C)COC(=O)c1ccc2c(c1)/C(=C/Nc1ccc(S(N)(=O)=O)cc1)C(=O)N2 [GW416981X] | 1.146
29 | Cc1cc(O)cc(C)c1/C=C/c1cncc(C(=O)N(C)C)c1 [GW427984X] | 1.241
30 | O=C1Nc2ccc(-c3cccnc3)cc2C1=Cc1cc(Br)c(O)c(Br)c1 [GW429374A] | 1.179
31 | CNC(=O)Oc1cc(C)c(/C=C/c2cncc(C(=O)NC)c2)c(C)c1 [GW432441X] | 1.157
32 | Fc1ccc(-c2nn3ccccc3c2-c2ccncc2)cc1 [GW434756X] | 0.1696
33 | Cc1cc(O)cc(C)c1/C=C/c1cncc(C(N)=O)c1 [GW435821X] | 1.076
34 | Cc1cc(O)cc(C)c1/C=C/c1cncc(C(=O)OC(C)(C)C)c1 [GW439255X] | 1.014
35 | COc1cc2nccc(Nc3ccc(OCc4ccc(NC(C)=O)cc4)cc3)c2cc1OC [GW440135A] | 1.118
36 | c1ccc(-c2ccc3c(Nc4ccc5[nH]ncc5c4)ccnc3c2)nc1 [GW440137A] | 1.678
37 | c1ccc(-c2ccc3c(Nc4ccc5[nH]ccc5c4)ccnc3c2)nc1 [GW440138A] | 1.081
38 | Cc1ccc(O)cc1Nc1ccnc2cc(-c3ccccn3)ccc12 [GW440139B] | 1.023
39 | Cc1ccc(C(=O)Nc2ccc(Nc3ccnc4cc(-c5ccccn5)ccc34)cc2O)cc1 [GW440146A] | 2.166
40 | CC(=O)Nc1ccc(COc2ccc(Nc3ccnc4cc(-c5ccccn5)ccc34)cc2)cc1 [GW440148A] | 1.657
41 | Cn1cc(C=C2C(=O)Nc3cccnc32)c2ccccc21 [GW441756X] | 1.234
42 | Cc1cc(O)cc(C)c1/C=C/c1cncc(-c2nn[nH]n2)c1 [GW441806A] | 1.117
43 | CNC(=O)c1cncc(/C=C/c2c(C)cccc2C)c1 [GW445012X] | 1.157
44 | CNC(=O)c1cncc(/C=C/c2c(Cl)cccc2Cl)c1 [GW445014X] | 1.122
45 | CNC(=O)c1cncc(/C=C/c2ccccc2C)c1 [GW445015X] | 1.264
46 | CCc1cccc(CC)c1/C=C/c1cncc(C(=O)NC)c1 [GW450241X] | 1.076
47 | Cc1ccn2nc(-c3ccc(F)cc3)c(-c3ccncc3)c2c1 [GW457859A] | 0.07245
48 | Cc1cc(-c2ccco2)cc(C)c1/C=C/c1cncc(-c2nn[nH]n2)c1 [GW458344A] | 1.482
49 | CS(=O)(=O)CCNCc1ccc(-c2ccc3ncnc(Nc4ccc(OCc5ccccc5)cc4)c3c2)o1 [GW458787A] | 0.4223
50 | CS(=O)(=O)CCNCc1nc(-c2ccc3ncnc(Nc4ccc(F)c(Cl)c4)c3c2)cs1 [GW461104B] | 0.6524

Row | SMILES | fold change in fluorescence relative to zaprinast alone
51 | Cc1ccc2c(-c3ccncc3)c(-c3ccc(F)cc3)nn2c1 [GW461484A] | 0.2133
52 | Cc1cccc2c(-c3ccncc3)c(-c3ccc(F)cc3)nn12 [GW461487A] | 0.2322
53 | Cc1c(O)cccc1Nc1ccnc2ccc(C(F)(F)F)cc12 [GW466413A] | 1.009
54 | COc1cccc2c(-c3ccncc3)c(-c3ccc(F)cc3)nn12 [GW468513X] | 0.06975
55 | Fc1ccc(-c2nn3cccc(F)c3c2-c2ccncc2)cc1 [GW475620X] | 0.2984
56 | CC(C)c1ccc(O)cc1Nc1ccnc2ccc(C(F)(F)F)cc12 [GW482059X] | 1.143
57 | CC(=O)c1c(-c2ccncc2)[nH]c(-c2ccncc2)c1C [GW493036X] | 1.057
58 | Oc1cccc(Nc2ccnc3cc(-c4ccncc4)ccc23)c1 [GW494601A] | 1.032
59 | COc1cc(Nc2ccnc3cc(-c4ccncc4)ccc23)cc(OC)c1OC [GW494610A] | 0.2498
60 | Cc1ccc(C(=O)Nc2ccc(Nc3ccnc4cc(-c5nccs5)ccc34)cc2O)cc1 [GW494702A] | 0.9828
61 | Cc1cc(NCC(c2ccccc2)c2ccccc2)nc(NCc2ccc(C(F)(F)F)cc2)n1 [GW497681X] | 1.268
62 | COc1cc(C=NNc2ncnc3c2cnn3-c2ccccc2)ccc1O [GW513184X] | 0.5493
63 | Fc1ccc(-c2nn3c(OCC(F)(F)F)cccc3c2-c2ccncc2)cc1 [GW514784X] | 0.04564
64 | CSc1cccc2c(-c3ccncn3)c(-c3ccc(F)cc3)nn12 [GW514786X] | 0.1155
65 | Cc1cccc2c(-c3ccncn3)c(-c3ccc(F)cc3)nn12 [GW515532X] | 0.6118
66 | Nc1nc(-c2ccccn2)c(-c2ccnc3ccccc23)s1 [GW548057X] | 0.7803
67 | c1ccc(Nc2ncc(-c3ccccc3)o2)cc1 [GW549390X] | 1.88
68 | Fc1cc(Cl)ccc1Nc1ccnc2cc(I)ccc12 [GW551191X] | 1.044
69 | Oc1cc(Nc2ccnc3cc(I)ccc23)ccc1F [GW552771X] | 0.9648
70 | Nc1n[nH]c2nnc(-c3ccccc3)c(-c3ccccc3)c12 [GW554060X] | 1.19
71 | Cc1ccc(O)cc1Nc1ccnc2cc(-c3ccc(CN4CCCCC4)o3)ccc12 [GW557777X] | 0.8105
72 | Cc1ccc(O)cc1Nc1ccnc2ccc(S(C)(=O)=O)cc12 [GW559768X] | 1.199
73 | Fc1cc(Cl)ccc1Nc1ccnc2cc(-c3ccc(CN4CCSCC4)o3)ccc12 [GW560106X] | 0.6773
